# Experimental data from US6914045B2, “Glycopeptide antibiotics” (Wyeth Holdings Corporation, priority 2001, dated 2005).
# Legend:
# Assay in all cases: in vitro antibacterial evaluation, MIC by broth dilution
# Type in all cases: cell-based
# Escherichia coli = conditions: 18 hours at 35° C.
# Enterococcus sp. = conditions: broth dilution, 18 hours at 35° C.
# Procedure, shortened: (§1)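 Read-out: the lowest concentration at which the test strain fails to grow. Serial dilutions (64-0.06 μg/mL) in Muller-Hinton II […], 5×10^5 CFU/mL inoculum, NCCLS M7-A2 procedure.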
# Streptococcus sp. = conditions: broth dilution, 18 hours at 35° C.
# Procedure, shortened: as §1
# Staphylococcus sp. = conditions: broth dilution, 18 hours at 35° C.; for MIC Staphylococcus aureus (ATCC 29213): strain ATCC 29213; for MIC Staphylococcus aureus (GC 1131): strain GC 1131; for MIC Staphylococcus aureus (GC 4541): strain GC 4541; for MIC Staphylococcus aureus (GC 4542): strain GC 4542; for MIC Staphylococcus aureus (GC 4544): strain GC 4544; for MIC Staphylococcus aureus (GC 4545): strain GC 4545
# Procedure, shortened: as §1
smiles,measurement,setting,value
CC(c1ccccc1)C1NC(=O)CNC(=O)C(CO)NC(=O)C(C(O)C2CN(c3nc4ccccc4o3)C(=N)N2C2OC(CO)C(O)C(O)C2O)NC(=O)C(C(O)C2CNC(=Nc3nc4ccccc4o3)N2)NC(=O)C(Cc2ccc(OC3OC(CO)C(OC4OC5COC6(OC5C(O)C4O)C4CC5CC(C4)CC6C5)C(O)C3O)cc2)NC1=O (stereo not drawn) [Example 227],MIC Escherichia coli (ATCC 25922),Escherichia coli,>128 µg/mL
same,MIC Escherichia coli (GC 4559),Escherichia coli,>128 µg/mL
same,MIC Escherichia coli (GC 4560),Escherichia coli,8 µg/mL
same,MIC Enterococcus avium (GC 4558),Enterococcus sp.,8 µg/mL
same,MIC Enterococcus faecalis (ATCC 29212),Enterococcus sp.,64 µg/mL
same,MIC Enterococcus faecalis (GC 2242),Enterococcus sp.,64 µg/mL
same,MIC Enterococcus faecalis (GC 2691),Enterococcus sp.,64 µg/mL
same,MIC Enterococcus faecalis (GC 3059),Enterococcus sp.,128 µg/mL
same,MIC Enterococcus faecalis (GC 4552),Enterococcus sp.,64 µg/mL
same,MIC Enterococcus faecalis (GC 4553),Enterococcus sp.,8 µg/mL
same,MIC Enterococcus faecalis (GC 4554),Enterococcus sp.,128 µg/mL
same,MIC Enterococcus faecalis (GC 6189),Enterococcus sp.,64 µg/mL
same,MIC Enterococcus faecium (GC 2243),Enterococcus sp.,32 µg/mL
same,MIC Enterococcus faecium (GC 4556),Enterococcus sp.,64 µg/mL
same,MIC Enterococcus faecium (GC 4557),Enterococcus sp.,8 µg/mL
same,MIC Enterococcus faecalis (ATCC 29212),"Enterococcus sp.; inoculum 5×10^5 CFU/mL, strain ATCC 29212",64 µg/mL
same,MIC Enterococcus faecalis (GC 2242),"Enterococcus sp.; inoculum 5×10^5 CFU/mL, strain GC 2242",64 µg/mL
same,MIC Enterococcus faecium (GC 2243),"Enterococcus sp.; inoculum 5×10^5 CFU/mL, strain GC 2243",32 µg/mL
same,MIC Enterococcus faecalis (GC 2691),"Enterococcus sp.; inoculum 5×10^5 CFU/mL, strain GC 2691",64 µg/mL
same,MIC Enterococcus faecalis (GC 3059),"Enterococcus sp.; inoculum 5×10^5 CFU/mL, strain GC 3059",128 µg/mL
same,MIC Enterococcus faecalis (GC 4552),"Enterococcus sp.; inoculum 5×10^5 CFU/mL, strain GC 4552",64 µg/mL
same,MIC Enterococcus faecalis (GC 4553),"Enterococcus sp.; inoculum 5×10^5 CFU/mL, strain GC 4553",8 µg/mL
same,MIC Enterococcus faecalis (GC 4554),"Enterococcus sp.; inoculum 5×10^5 CFU/mL, strain GC 4554",128 µg/mL
same,MIC Enterococcus faecium (GC 4556),"Enterococcus sp.; inoculum 5×10^5 CFU/mL, strain GC 4556",64 µg/mL
same,MIC Enterococcus faecium (GC 4557),"Enterococcus sp.; inoculum 5×10^5 CFU/mL, strain GC 4557",8 µg/mL
same,MIC Enterococcus avium (GC 4558),"Enterococcus sp.; inoculum 5×10^5 CFU/mL, strain GC 4558",8 µg/mL
same,MIC Enterococcus faecalis (GC 6189),"Enterococcus sp.; inoculum 5×10^5 CFU/mL, strain GC 6189",64 µg/mL
same,MIC Streptococcus agalactiae (GC 4564),Streptococcus sp.,4 µg/mL
same,MIC Streptococcus pneumoniae (ATCC 6301),Streptococcus sp.,32 µg/mL
same,MIC Streptococcus pneumoniae (GC 1894),Streptococcus sp.,32 µg/mL
same,MIC Streptococcus pneumoniae (GC 4565),Streptococcus sp.,64 µg/mL
same,MIC Streptococcus pyogenes (GC 4563),Streptococcus sp.,32 µg/mL
same,MIC Streptococcus pneumoniae (ATCC 6301),"Streptococcus sp.; inoculum 5×10^5 CFU/mL, strain ATCC 6301",32 µg/mL
same,MIC Streptococcus pneumoniae (GC 1894),"Streptococcus sp.; inoculum 5×10^5 CFU/mL, strain GC 1894",32 µg/mL
same,MIC Streptococcus pyogenes (GC 4563),"Streptococcus sp.; inoculum 5×10^5 CFU/mL, strain GC 4563",32 µg/mL
same,MIC Streptococcus agalactiae (GC 4564),"Streptococcus sp.; inoculum 5×10^5 CFU/mL, strain GC 4564",64 µg/mL
same,MIC Streptococcus pneumoniae (GC 4565),"Streptococcus sp.; inoculum 5×10^5 CFU/mL, strain GC 4565",64 µg/mL
same,MIC Coagulase Negative Staphylococcus (GC 4547),Staphylococcus sp.,32 µg/mL
same,MIC Coagulase Negative Staphylococcus (GC 4548),Staphylococcus sp.,4 µg/mL
same,MIC Coagulase Negative Staphylococcus (GC 4549),Staphylococcus sp.,32 µg/mL
same,MIC Coagulase Negative Staphylococcus (GC 4551),Staphylococcus sp.,8 µg/mL
same,MIC Staphylococcus aureus-SMITH (GC 4543),Staphylococcus sp.,128 µg/mL
same,MIC Staphylococcus haemolyticus (GC 4546),Staphylococcus sp.,64 µg/mL
same,MIC Staphylococcus aureus-SMITH (GC 4543),Staphylococcus sp.; strain GC 4543,128 µg/mL
same,MIC Staphylococcus haemolyticus (GC 4546),Staphylococcus sp.; strain GC 4546,64 µg/mL
same,MIC Coagulase Negative Staphylococcus (GC 4547),Staphylococcus sp.; strain GC 4547,32 µg/mL
same,MIC Coagulase Negative Staphylococcus (GC 4548),Staphylococcus sp.; strain GC 4548,4 µg/mL
same,MIC Coagulase Negative Staphylococcus (GC 4549),Staphylococcus sp.; strain GC 4549,32 µg/mL
same,MIC Coagulase Negative Staphylococcus (GC 4551),Staphylococcus sp.; strain GC 4551,8 µg/mL
same,MIC Staphylococcus aureus (ATCC 29213),Staphylococcus sp.,128 µg/mL
same,MIC Staphylococcus aureus (GC 1131),Staphylococcus sp.,128 µg/mL
same,MIC Staphylococcus aureus (GC 3051),Staphylococcus sp.; strain GC 3051,128 µg/mL
same,MIC Staphylococcus aureus (GC 3053),Staphylococcus sp.; strain GC 3053,>128 µg/mL
same,MIC Staphylococcus aureus (GC 4541),Staphylococcus sp.,128 µg/mL
same,MIC Staphylococcus aureus (GC 4542),Staphylococcus sp.,128 µg/mL
same,MIC Staphylococcus aureus (GC 4544),Staphylococcus sp.,128 µg/mL
same,MIC Staphylococcus aureus (GC 4545),Staphylococcus sp.,128 µg/mL
"CC(c1ccccc1)C1NC(=O)CNC(=O)C(CO)NC(=O)C(C(O)C2CNC(=N)N2C2OC(CO)C(O)C(O)C2O)NC(=O)C(C(O)C2CNC(=N)N2)NC(=O)C(Cc2ccc(OC3OC(COC(=O)C(c4ccccc4)c4ccccc4)C(OC4OC(CO)C(O)C(O)C4O)C(O)C3O)cc2)NC1=O (stereo not drawn) [Example 96b, Cyclo[glycyl-β-methylphenylalanyl-O-[6-O-(diphenylacetyl)-4-O-hexopyranosylhexopyranosyl]tyrosyl-3-(2-iminoimidazolidin-4-yl)seryl-3-(3-hexopyranosyl-2-iminoimidazolidin-4-yl)serylseryl]]",MIC Escherichia coli (ATCC 25922),Escherichia coli,>128 µg/mL
same,MIC Enterococcus avium (GC 4558),Enterococcus sp.; Enterococcus avium (GC 4558),4 µg/mL
same,MIC Enterococcus faecalis (ATCC 29212),Enterococcus sp.; Enterococcus faecalis (ATCC 29212),8 µg/mL
same,MIC Enterococcus faecalis (GC 2242),Enterococcus sp.; Enterococcus faecalis (GC 2242),4 µg/mL
same,MIC Enterococcus faecalis (GC 4552),Enterococcus sp.; Enterococcus faecalis (GC 4552),8 µg/mL
same,MIC Enterococcus faecalis (GC 4553),Enterococcus sp.; Enterococcus faecalis (GC 4553),8 µg/mL
same,MIC Enterococcus faecalis (GC 4554),Enterococcus sp.; Enterococcus faecalis (GC 4554),8 µg/mL
same,MIC Enterococcus faecium (GC 2243),Enterococcus sp.; Enterococcus faecium (GC 2243),8 µg/mL
same,MIC Enterococcus faecium (GC 4556),Enterococcus sp.; Enterococcus faecium (GC 4556),8 µg/mL
same,MIC Enterococcus faecium (GC 4557),Enterococcus sp.; Enterococcus faecium (GC 4557),1 µg/mL
same,MIC Enterococcus avium (GC 4558),Enterococcus sp.,4 µg/mL
same,MIC Enterococcus faecalis (ATCC 29212),Enterococcus sp.,8 µg/mL
same,MIC Enterococcus faecalis (GC 2242),Enterococcus sp.,4 µg/mL
same,MIC Enterococcus faecalis (GC 4552),Enterococcus sp.,8 µg/mL
same,MIC Enterococcus faecalis (GC 4553),Enterococcus sp.,8 µg/mL
same,MIC Enterococcus faecalis (GC 4554),Enterococcus sp.,8 µg/mL
same,MIC Enterococcus faecium (GC 2243),Enterococcus sp.,8 µg/mL
same,MIC Enterococcus faecium (GC 4556),Enterococcus sp.,8 µg/mL
same,MIC Enterococcus faecium (GC 4557),Enterococcus sp.,1 µg/mL
same,MIC Streptococcus agalactiae (GC 4564),Streptococcus sp.; Streptococcus agalactiae (GC 4564),0.25 µg/mL
same,MIC Streptococcus pneumoniae (GC 4565),Streptococcus sp.; Streptococcus pneumoniae (GC 4565),<0.12 µg/mL
same,MIC Streptococcus pyogenes (ID-3187),Streptococcus sp.; Streptococcus pyogenes (ID-3187),0.25 µg/mL
same,MIC Streptococcus agalactiae (GC 4564),Streptococcus sp.,0.25 µg/mL
same,MIC Streptococcus pneumoniae (GC 4565),Streptococcus sp.,<0.12 µg/mL
same,MIC Streptococcus pyogenes (ID-3187),Streptococcus sp.,0.25 µg/mL
same,MIC Coagulase Negative Staphylococcus (GC 4547),Staphylococcus sp.,1 µg/mL
same,MIC Coagulase Negative Staphylococcus (GC 4548),Staphylococcus sp.,0.5 µg/mL
same,MIC Coagulase Negative Staphylococcus (GC 4549),Staphylococcus sp.,0.5 µg/mL
same,MIC Coagulase Negative Staphylococcus (GC 4551),Staphylococcus sp.,2 µg/mL
same,MIC Coagulase Negative Staphylococcus (ID-3941),Staphylococcus sp.,0.5 µg/mL
same,MIC Staphylococcus aureus-SMITH (GC 4543),Staphylococcus sp.,2 µg/mL
same,MIC Staphylococcus haemolyticus (GC 4546),Staphylococcus sp.,1 µg/mL
same,MIC Staphylococcus haemolyticus (GC 4546),Staphylococcus sp.; strain GC 4546,1 µg/mL
same,MIC Coagulase Negative Staphylococcus (GC 4547),Staphylococcus sp.; strain GC 4547,1 µg/mL
same,MIC Coagulase Negative Staphylococcus (GC 4548),Staphylococcus sp.; strain GC 4548,0.5 µg/mL
same,MIC Coagulase Negative Staphylococcus (GC 4549),Staphylococcus sp.; strain GC 4549,0.5 µg/mL
same,MIC Coagulase Negative Staphylococcus (GC 4551),Staphylococcus sp.; strain GC 4551,2 µg/mL
same,MIC Coagulase Negative Staphylococcus (ID-3941),Staphylococcus sp.; strain ID-3941,0.5 µg/mL
same,MIC Staphylococcus aureus-SMITH (GC 4543),Staphylococcus sp.; strain SMITH GC 4543,2 µg/mL
same,MIC Staphylococcus aureus (ATCC 29213),Staphylococcus sp.,1 µg/mL
same,MIC Staphylococcus aureus (GC 1131),Staphylococcus sp.,2 µg/mL
same,MIC Staphylococcus aureus (GC 4541),Staphylococcus sp.,1 µg/mL
same,MIC Staphylococcus aureus (GC 4542),Staphylococcus sp.,2 µg/mL
same,MIC Staphylococcus aureus (GC 4544),Staphylococcus sp.,2 µg/mL
same,MIC Staphylococcus aureus (GC 4545),Staphylococcus sp.,1 µg/mL
